The values that follow come from ChEMBL document CHEMBL4330153, “In Vivo Anti-inflammatory and Antiallergic Activity of Pure Naringenin, Naringenin Chalcone, and Quercetin in Mice” (2019).

Assay [1] concerns Mus musculus. The experiment in a line: Anti-inflammatory activity in tetradecanoylphorbol-13-acetate-induced CD-1 mouse ear edema model assessed as inhibition of ear edema thickness at 2% administered topically immediately after tetradecanoylphorbol-13-acetate treatment and measured 4 hrs post tetradecanoylphorbol-13-acetate treatment relative to control. It is filed as functional.

Assay [2] concerns Mus musculus. The assay can be described thus: Anti-inflammatory activity in tetradecanoylphorbol-13-acetate-induced CD-1 mouse ear edema model assessed as inhibition of ear edema thickness administered topically immediately after tetradecanoylphorbol-13-acetate treatment and measured 4 hrs post tetradecanoylphorbol-13-acetate treatment. It is filed as functional, organism-based.

Assay [3] has as its system Mus musculus. The assay can be described thus: Anti-inflammatory activity in tetradecanoylphorbol-13-acetate-induced CD-1 mouse ear edema model assessed as inhibition of ear edema thickness at 0.5% administered topically immediately after tetradecanoylphorbol-13-acetate treatment and measured 4 hrs post tetradecanoylphorbol-13-acetate treatment relative to control. Format: functional.

The subject of assay [4] is Mus musculus. The experiment in a line: Anti-inflammatory activity in tetradecanoylphorbol-13-acetate-induced CD-1 mouse ear edema model assessed as inhibition of ear edema thickness at 1% administered topically immediately after tetradecanoylphorbol-13-acetate treatment and measured 4 hrs post tetradecanoylphorbol-13-acetate treatment relative to control. It is filed as functional.

In assay [5] the test system is Mus musculus. The experiment in a line: Anti-inflammatory activity in arachidonic acid-induced CD-1 mouse ear edema model assessed as inhibition of ear edema thickness at 2% administered topically immediately after arachidonic acid treatment and measured 1 hr post arachidonic acid treatment relative to control. It is filed as functional.
Assay [6] has as its system Mus musculus. The assay can be described thus: Anti-inflammatory activity in arachidonic acid-induced CD-1 mouse ear edema model assessed as inhibition of ear edema thickness at 1% administered topically immediately after arachidonic acid treatment and measured 1 hr post arachidonic acid treatment relative to control. Format: functional.
The subject of assay [7] is Mus musculus. The experiment in a line: Antiallergic activity in CD-1 mouse model of IgE/DNP-BSA-stimulated passive cutaneous anaphylaxis assessed as inhibition of vascular permeability at 2% administered topically immediately after sensitization by Evans blue extravasation assay relative to control. Format: functional.
Assay [8] has as its system Mus musculus. The assay can be described thus: Antiallergic activity in CD-1 mouse model of IgE/DNP-BSA-stimulated passive cutaneous anaphylaxis assessed as inhibition of vascular permeability at 0.02%, iv administered immediately after sensitization by Evans blue extravasation assay relative to control. Format: functional.
Assay [9] relates to Mus musculus. The assay can be described thus: Antiallergic activity in mouse model of IgE/DNP-BSA-stimulated passive cutaneous anaphylaxis at 5 mg/kg, ip administered as single dose relative to control. Format: functional.
For assay [10], the system named is Mus musculus. The assay can be described thus: Anti-inflammatory activity in arachidonic acid-induced CD-1 mouse ear edema model assessed as inhibition of ear edema thickness administered topically immediately after arachidonic acid treatment and measured 1 hr post arachidonic acid treatment. Format: functional, organism-based.
Assay [11] has as its system Mus musculus. The experiment in a line: Antiallergic activity in mouse model of picryl-chloride-induced […] allergy at 0.8 mg/kg, po for 5 days relative to control. It is filed as functional.
For assay [12], the system named is Mus musculus. The experiment in a line: Anti-inflammatory activity in arachidonic acid-induced CD-1 mouse ear edema model assessed as inhibition of ear edema thickness at 1.3% administered topically immediately after arachidonic acid treatment and measured 1 hr post arachidonic acid treatment. It is filed as functional, organism-based.
Assay [13] concerns Mus musculus. The assay can be described thus: Anti-inflammatory activity in tetradecanoylphorbol-13-acetate-induced CD-1 mouse ear edema model assessed as inhibition of ear edema thickness at 1.3% administered topically immediately after tetradecanoylphorbol-13-acetate treatment and measured 4 hrs post tetradecanoylphorbol-13-acetate treatment. Format: functional, organism-based.

The test system of assay [14] is Mus musculus. The assay can be described thus: Antiallergic activity in CD-1 mouse model of IgE/DNP-BSA-stimulated passive cutaneous anaphylaxis assessed as inhibition of vascular permeability at 0.1% administered topically immediately after sensitization by Evans blue extravasation assay. Format: functional, organism-based.
Assay [15] concerns Mus musculus. The experiment in a line: Antiallergic activity in CD-1 mouse model of IgE/DNP-BSA-stimulated passive cutaneous anaphylaxis assessed as inhibition of vascular permeability at 5% administered topically immediately after sensitization by Evans blue extravasation assay. It is filed as functional, organism-based.
Assay [16] deals with Mus musculus. The assay can be described thus: Antiallergic activity in CD-1 mouse model of IgE/DNP-BSA-stimulated passive cutaneous anaphylaxis assessed as inhibition of vascular permeability at 4% administered topically as oil-in-water emulsion immediately after sensitization by Evans blue extravasation assay relative to control. It is filed as functional, organism-based.

Assay [17] relates to Mus musculus. The assay can be described thus: Antiallergic activity in CD-1 mouse model of IgE/DNP-BSA-stimulated passive cutaneous anaphylaxis assessed as inhibition of vascular permeability at 0.2%, iv administered immediately after sensitization by Evans blue extravasation assay. It is filed as functional, organism-based.
For assay [18], the system named is Mus musculus. The assay can be described thus: Antiallergic activity in CD-1 mouse model of IgE/DNP-BSA-stimulated passive cutaneous anaphylaxis assessed as inhibition of vascular permeability at 1% administered topically immediately after sensitization by Evans blue extravasation assay relative to control. It is filed as functional, organism-based.

Molecules are shown by their SMILES. The source made the active and inactive calls. The rule behind the calls is not given here.

For `O=C1C[C@@H](c2ccc(O)cc2)Oc2cc(O)cc(O)c21` [NARINGENIN], the “inhibition (INH)” value in the assay with Mus musculus [1] turned out to be 62%; in the assay on Mus musculus [3], 32%; in the assay on Mus musculus [4] it was 56%; in the assay on Mus musculus [5], 56%; in the assay with Mus musculus [6], 22%; in the assay with Mus musculus [7], 42%. In addition, the “inhibition (INH)” value with Mus musculus [8] is given as 56%. The inhibition result with Mus musculus [2] and with Mus musculus [10] was “Dose-dependent effect” throughout. The Activity with Mus musculus [9] came to 70%; with Mus musculus [11], 15%.

Turning to `O=c1c(O)c(-c2ccc(O)c(O)c2)oc2cc(O)cc(O)c12` [QUERCETIN], the entries for the “inhibition (INH)” value with Mus musculus [7] and in the assay with Mus musculus [8] were 34% and 80%, respectively. For the same molecule, the inhibition result with Mus musculus [12] is “inactive”. The inhibition result in the assay with Mus musculus [13] is “Active”. The same molecule had an Activity in the assay on Mus musculus [11] of 15%.

Regarding `CCC(=O)O[C@]1(C(=O)COC(C)=O)CC[C@H]2[C@@H]3C[C@H](C)C4=CC(=O)C=C[C@]4(C)[C@H]3[C@@H](O)C[C@@]21C`, in the assay with Mus musculus [14], the inhibition entry was “Active”.

On to `O=C(O)Cc1ccccc1Nc1c(Cl)cccc1Cl`, for which the inhibition entry with Mus musculus [4] and in the assay with Mus musculus [6] was “Active” each time.

Take `O=C(/C=C/c1ccc(O)cc1)c1c(O)cc(O)cc1O` [4,2',4',6'-TETRAHYDROXYCHALCONE]: the “inhibition (INH)” value in the assay with Mus musculus [4] came out at 27%; in the assay with Mus musculus [5], 42%; in the assay with Mus musculus [7], 55%; in the assay on Mus musculus [8], 68%. Besides, the Activity in the assay on Mus musculus [11] was 47%.

With `CC(c1cc2ccccc2s1)N(O)C(N)=O` (centres undefined), the inhibition result in the assay on Mus musculus [15] is “Active”.

As to `O=C(O)c1cc(=O)c2c(OCC(O)COc3cccc4oc(C(=O)O)cc(=O)c34)cccc2o1`, the inhibition result in the assay on Mus musculus [16] and in the assay on Mus musculus [7] was “inactive” each time. Besides, in the assay on Mus musculus [17], the inhibition entry is “Active”.

Regarding `CN(C)CCC(c1ccc(Cl)cc1)c1ccccn1` (centres undefined), the inhibition entry in the assay on Mus musculus [18] is “Active”.
